Assay results as given in patent US4886886A, “Substituted 1,3,4,9-tetrahydropyrano[3,4-b]indole-1-acetic acids” (American Home Products Corporation, priority 1988, dated 1989).

Tests used:
Adjuvant Edema = test: Preventative Adjuvant Edema; type: in vivo, Male Sprague Dawley rats; conditions: rat, given days 0, 1 and 2, edema volume on day 3; for Preventative Adjuvant Edema, percent inhibition: 25 mg/kg p.o.
Experimental: This test is a primary screen for anti-inflammatory drugs.
Male Sprague Dawley rats (180-200 g) are used. The animals have free access to water but food is withdrawn 18 hours before testing.
Drug Preparations and Administration:
Freund's complete adjuvant is prepared by suspending 5 mg of killed and dried Mycobacterium butyricum (Difco) in 1 mL mineral oil. The test compounds are dissolved, or suspended in 0.5% Tween 80 in distilled water according to their solubility. For primary screening all drugs are administered by gastric lavage at the arbitrary dosage of 25 mg/kg, p.o. in a volume of 0.5 mL/100 g body weight to groups of 10 animals.
The method is essentially that described by Wax et al, J. Pharmacol. Exp. Ther., 192, 166-171 (1975). Groups of rats are injected intradermally in the left hind paw with 0.1 mL of Freund's complete adjuvant. The test compound or vehicle is administered immediately before the adjuvant, 24 hours and 48 hours after the adjuvant (days 0, 1 and 2). The injected hind paw volume is measured before the injection of adjuvant and 24 hrs. after the last drug administration (day 3) by means of a plethysmometer (Buxco Electronics Inc.). The difference between the hind paw volume on day 0 and day 3 represents the edema volume. Etodolac (25 mg/kg, p.o.) is included as a positive control.
The mean edema volume (expressed as mL±SEM) is calculated for each group and the percentage protection conferred by the drug is calculated: [formula] where c is the mean edema volume for the vehicle-treated (0.5% Tween 80 in distilled water) controls and t is the mean edema volume for the drug treated group.

[1] = system: Phenylbenzoquinone-induced Writhing; test: Drug Effects on Phenylbenzoquinone-induced Writhing in Mice; type: in vivo, Male Swiss albino mice; conditions: mouse, 60 min before PBQ
Experimental: A further test used to determine the utility of the compounds of the present invention is designated: Drug Effects on Phenylbenzoquinone-induced Writhing in Mice
The objective of this test is to determine the ability of test drugs to inhibit the nociceptive (pain) response of mice injected with a chemical irritant. This test is a primary screen for both peripheral and centrally acting analgesic drugs.
Male Swiss albino mice (15-25 g). The animals are fasted for 18 hours prior to use but have free access to water.
(§1) Drug Preparation and Administration:
Drugs are dissolved or suspended according to their solubility in 0.5% Tween 80 in distilled water. They are administered by gastric gavage in a volume of 5 mL/kg. For primary screening all drugs are administered at the arbitary dosage of 25 mg/kg, p.o. to a group of 10 mice.
A modification of the method of Siegmund et al, Proc. Soc. Exp. Biol. Med., 95, 729-731 […] is used. Groups of 5 mice are dosed with the test compound or vehicle control. Sixty minutes later the animals are injected i.p. with 0.3 mL/20 g body weight of a 0.02% solution of phenylbenzoquinone (PBQ; 2-phenyl-1,4-benzoquinone) and placed in individual observation boxes. The number of writhing or abdominal squirming movements made by each mouse during the following 15 min. period is counted. The experiment is repeated with another group of 5 mice and the mean number of writhes per mouse for a group of 10 mice is calculated.
Drug treated and vehicle-treated control groups are compared and the percentage protection conferred by the drug is calculated: [formula]
where c=mean number of writhes in the control group
where t=mean number of writhes in the test drug group

[2] = system: reaction of rats to painful stimulation applied to an inflamed paw; test: Randall Selitto Test in the Rat; type: in vivo, Male Sprague Dawley rats; conditions: po, by gastric gavage, 24 hours after adjuvant, pain threshold 1 hour later, read-out: Randall Selitto, ED50 (dose which causes analgesia in 50% of the animals)
Excerpt: An additional test used to determine the utility of the compounds of the present invention is designated: Randall Selitto Test in the Rat
The objective of this test is to assess the potency of peripheral and central acting drugs in inhibiting the reaction of rats to painful stimulation applied to an inflamed paw.
Male Sprague Dawley rats (180-200 g) are used. The animals are fasted overnight prior to drug administration.
as §1
Freund's Complete Adjuvant (FCA) is prepared by suspending 5 mg killed and dried mycobacterium butyricum (Difco) in 1 mL mineral oil. The test compounds are dissolved or suspended in 0.5% Tween 80 in distilled water according to their solubility. They are administered by gastric gavage in a volume of 0.5 mL/100 g body weight to groups of 10 animals.
Ten rats are used per group. The method is essentially that described by Randall and Selitto, Arch. Int. Pharmacodyn. […] The force is continuously monitored by a pointer moving along a linear scale and is measured in grams. […] The pain threshold (vocalization) is determined 1 hour later in the inflamed paw of the treated and control groups. […]
Each animal which has a reading 1.5 times greater than the mean reading of the control-group will be considered as responsive (having an analgesic effect) to treatment. The number of animals showing an analgesic effect is then determined in each group. […]

Row | Structure (SMILES) | Preventative Adjuvant Edema, percent inhibition (Adjuvant Edema) [percent inhibition] | Phenylquinone Writhing in Mice, percent inhibition ([1]; 10 mg/kg p.o.) [percent inhibition] | ED50 ([1]; po, 1 h, p.o., read-out: Phenylquinone Writhing in Mice, ED50) [mg/kg] | ED50 [2] [mg/kg] | ED50 (Adjuvant Edema; po, 72 h, p.o.) [mg/kg] | Phenylquinone Writhing in Mice, percent inhibition ([1]; 200 mg/kg p.o.) [percent inhibition]
1 | C=CCc1cccc2c3c([nH]c12)C(CC)(CC(=O)O)OCC3C (single isomer, unassigned) [Example 3, 1-Ethyl-1,3,4,9-tetrahydro-4-methyl-8-(2-propenyl)-pyrano[3,4-b]indole-1-acetic Acid] | 57 | 20 | – | – | – | –
2 | C=CCc1c(F)ccc2c3c([nH]c12)C(CC)(CC(=O)O)OCC3 (stereo not shown) [Example 1, 1-Ethyl-7-fluoro-1,3,4,9-tetrahydro-8-(2-propenyl)-pyrano[3,4-b]indole-1-acetic Acid] | 83 | – | 54.7 | 0.7 | – | –
3 | C=CCc1cccc2c3c([nH]c12)C(CC)(CC(=O)O)OCC3 (stereo not shown) [Example 2, 1-Ethyl-1,3,4,9-tetrahydro-8-(2-propenyl)-pyrano[3,4-b]-1-acetic Acid] | – | – | – | – | 9 | 42
